Earlier results as cited in patent publication US7785824B2, “Hydrolysed casein product comprising tripeptides IPP and/or VPP” (Conopco Inc., priority 2003, dated 2010).

Legend:
[1] = target: Angiotensin I Converting Enzyme (ACE) (Homo sapiens, UniProt P12821); conditions: concentration which results in 50% inhibition of the ACE activity
hypertensive humans = conditions: in sour milk, placebo-controlled study

Sequence of Angiotensin I Converting Enzyme (ACE) (P12821 30-1306, species assumed): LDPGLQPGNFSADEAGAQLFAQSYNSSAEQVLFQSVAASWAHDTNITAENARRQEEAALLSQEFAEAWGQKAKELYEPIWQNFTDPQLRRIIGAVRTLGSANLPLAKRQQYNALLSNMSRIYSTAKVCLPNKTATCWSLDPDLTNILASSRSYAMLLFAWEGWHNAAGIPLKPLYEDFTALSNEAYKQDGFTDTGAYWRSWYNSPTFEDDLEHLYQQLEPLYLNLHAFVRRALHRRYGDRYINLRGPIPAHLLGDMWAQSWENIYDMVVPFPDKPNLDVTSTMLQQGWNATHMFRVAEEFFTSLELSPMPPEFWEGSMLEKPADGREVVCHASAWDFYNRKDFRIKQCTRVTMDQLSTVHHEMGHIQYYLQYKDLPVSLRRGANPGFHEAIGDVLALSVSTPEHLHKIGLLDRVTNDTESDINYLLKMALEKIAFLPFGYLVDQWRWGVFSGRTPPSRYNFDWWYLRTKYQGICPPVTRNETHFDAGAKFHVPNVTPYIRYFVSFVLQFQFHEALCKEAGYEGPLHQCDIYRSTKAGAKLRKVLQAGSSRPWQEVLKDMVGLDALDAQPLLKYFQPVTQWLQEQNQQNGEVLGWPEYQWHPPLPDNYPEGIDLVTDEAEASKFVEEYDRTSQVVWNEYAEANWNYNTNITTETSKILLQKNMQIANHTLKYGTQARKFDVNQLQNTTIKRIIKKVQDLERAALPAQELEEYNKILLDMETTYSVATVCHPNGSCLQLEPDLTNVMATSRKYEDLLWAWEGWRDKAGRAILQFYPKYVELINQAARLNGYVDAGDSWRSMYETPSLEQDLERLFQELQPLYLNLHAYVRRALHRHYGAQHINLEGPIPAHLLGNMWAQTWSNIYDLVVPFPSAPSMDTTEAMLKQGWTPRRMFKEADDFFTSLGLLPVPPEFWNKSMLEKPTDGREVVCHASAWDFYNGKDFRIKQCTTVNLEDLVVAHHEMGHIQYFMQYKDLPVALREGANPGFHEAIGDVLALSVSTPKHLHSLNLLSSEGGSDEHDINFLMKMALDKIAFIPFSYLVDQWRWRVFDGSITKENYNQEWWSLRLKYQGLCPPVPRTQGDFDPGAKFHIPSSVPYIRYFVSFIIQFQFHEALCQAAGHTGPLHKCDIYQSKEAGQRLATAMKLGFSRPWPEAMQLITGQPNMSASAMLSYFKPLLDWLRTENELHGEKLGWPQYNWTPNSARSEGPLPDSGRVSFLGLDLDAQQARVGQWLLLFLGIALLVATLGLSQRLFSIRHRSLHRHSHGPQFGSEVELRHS

IC50 [1] [µM]	Substance	blood pressure lowering effect (hypertensive humans)
5	Ile-Pro-Pro [IPP]	blood pressure lowering effect
9.6	Leu-Pro-Pro [LPP]	

Substance	IC50 [1] [µM]	blood pressure lowering effect (hypertensive humans)
Val-Pro-Pro [VPP]	9	blood pressure lowering effect
